Experimental data taken from patent publication US9708336B2, “Metallo-beta-lactamase inhibitors” (priority 2014, dated 2017).
Like-named read-outs stand apart in the source and are kept apart here.

Experiments:
VIM-1 = VIM-1 (Pseudomonas aeruginosa (strain ATCC 15692 / DSM 22644 / CIP 104116 / JCM 14847 / LMG 12228 / 1C / PRS 101 / PAO1), UniProt A0A0F7KYQ8); assay: Enzyme activity: determination of IC50, fluorescence assay with CCF2-FA substrate (VIM-1); assay type: biochemical
[1] = tested on: Klebsiella pneumoniae expressing VIM-1 (IHMA599644); assay: Antibiotic potentiation activity: synergistic concentration (MITC95) with imipenem, OD600 growth; assay type: cell-based; details: for Klebsiella pneumoniae expressing VIM-1 (IHMA 599644) MITC95: concentration giving 95% inhibition of bacterial growth; for Klebsiella pneumoniae MITC95: Klebsiella pneumoniae expressing VIM-1 (IHMA599644), 95% growth inhibition
How it was run: (§1)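 CLB30005 was precultured on Mueller Hinton agar with 8 ug/ml imipenem, the other strains on trypticase soy agar with 5% sheep blood, overnight at 35 °C. Saline suspensions diluted 1:100 in 1.1× CAMHB received compound and 4 μg/ml imipenem, then 22–24 h at 35 °C before absorbance reading.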

[2] = tested on: Escherichia coli expressing NDM-1 (CLB30005); assay: as above; assay type: cell-based; details: for Escherichia coli expressing NDM-1 (CLB 30005) MITC95: concentration giving 95% inhibition of bacterial growth; for Escherichia coli MITC95: Escherichia coli expressing NDM-1 (CLB30005), 95% growth inhibition
How it was run: as §1

NDM-1 = NDM-1 (Klebsiella pneumoniae, UniProt C7C422); assay: biochemical; assay type: biochemical; details: read-out: NDM-1 IC50
IMP-1 = IMP-1 (Serratia marcescens, UniProt P52699); assay: biochemical; assay type: biochemical; details: read-out: IMP-1 IC50
[3] = tested on: Serratia marcescens expressing IMP-1 (CL5741); assay: Antibiotic potentiation activity: synergistic concentration (MITC95) with imipenem, OD600 growth; assay type: cell-based; details: for Serratia marcescens expressing IMP-1 (CL5741) MITC95: concentration giving 95% inhibition of bacterial growth; for Serratia marcescens MITC95: Serratia marcescens expressing IMP-1 (CL5741), 95% growth inhibition
How it was run: as §1

[4] = fluorescence assay with CCF2-FA substrate
[5] = fluorescence assay with CCF2-FA substrate, read-out: VIM-1 IC50
[6] = VIM-1 enzyme, CCF2-FA fluorescence assay, read-out: VIM-1 IC50
[7] = NDM-1 enzyme, CCF2-FA fluorescence assay
[8] = IMP-1 enzyme, CCF2-FA fluorescence assay

Sequence of NDM-1 (C7C422 whole entry, looked up, species assumed): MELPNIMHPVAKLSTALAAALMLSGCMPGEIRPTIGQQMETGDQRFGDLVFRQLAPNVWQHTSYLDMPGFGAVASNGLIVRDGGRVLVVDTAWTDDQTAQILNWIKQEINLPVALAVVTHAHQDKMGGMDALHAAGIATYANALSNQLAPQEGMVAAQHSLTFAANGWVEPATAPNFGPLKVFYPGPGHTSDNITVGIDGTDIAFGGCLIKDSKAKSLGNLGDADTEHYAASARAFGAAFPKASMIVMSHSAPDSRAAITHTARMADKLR
Sequence of IMP-1 (P52699 whole entry, looked up): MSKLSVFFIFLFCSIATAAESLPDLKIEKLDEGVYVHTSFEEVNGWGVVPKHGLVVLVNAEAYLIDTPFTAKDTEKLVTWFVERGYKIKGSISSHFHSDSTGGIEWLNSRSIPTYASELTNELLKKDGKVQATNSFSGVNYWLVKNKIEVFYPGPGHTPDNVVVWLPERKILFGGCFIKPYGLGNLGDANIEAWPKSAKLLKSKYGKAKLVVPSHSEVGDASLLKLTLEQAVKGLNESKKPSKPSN

Row | Structure (SMILES) | IC50 (VIM-1; VIM-1 IC50, fluorescence assay with CCF2-FA substrate) | Klebsiella pneumoniae expressing VIM-1 (IHMA 599644) MITC95 [1] | Escherichia coli expressing NDM-1 (CLB 30005) MITC95 [2] | IC50 (NDM-1; [4]) | IC50 (IMP-1; [4]) | IC50 (VIM-1; [5]) | Serratia marcescens expressing IMP-1 (CL5741) MITC95 [3] | IC50 (VIM-1; [6]) | Serratia marcescens MITC95 [3] | Klebsiella pneumoniae MITC95 [1] | Escherichia coli MITC95 [2] | IC50 (NDM-1; [7]) | IC50 (IMP-1; [8])
1 | NS(=O)(=O)c1cncc(-c2ccc(CO)cc2)c1-c1nnn[nH]1 [Example 189, 5-(4-(Hydroxymethyl)phenyl)-4-(1H-tetrazol-5-yl)pyridine-3-sulfonamide] | 685 nM | 100 µM | 1.563 µM | 23.2 nM | 704 nM | – | – | – | – | – | – | – | –
2 | NC(=O)c1cccc(-c2ccnc(S(N)(=O)=O)c2-c2nn[nH]n2)c1 [Example 204, 3-(2-sulfamoyl-3-(2H-tetrazol-5-yl)pyridin-4-yl)benzamide] | – | 12.5 µM | 0.3906 µM | 59 nM | 2860 nM | 238 nM | 37.5 µM | – | – | – | – | – | –
3 | N#CC1CC=C(c2cccc(S(N)(=O)=O)c2-c2nn[nH]n2)CC1 (centres unmarked) [Example 64, 3-(4-cyanocyclohex-1-en-1-yl)-2-(2H-tetrazol-5-yl)benzenesulfonamide] | – | 200 µM | 1.953 µM | 13.4 nM | 248 nM | 588 nM | 50 µM | – | – | – | – | – | –
4 | COc1cncc(-c2cccc(S(N)(=O)=O)c2-c2nn[nH]n2)n1 [Example 40, 3-(6-methoxypyrazin-2-yl)-2-(2H-tetrazol-5-yl)benzenesulfonamide] | – | 200 µM | 3.125 µM | 42.2 nM | 3050 nM | 560 nM | 200 µM | – | – | – | – | – | –
5 | NS(=O)(=O)c1nccc(-c2cnc3[nH]ccc3c2)c1-c1nn[nH]n1 [Example 212, 4-(1H-pyrrolo[2,3-b]pyridin-5-yl)-3-(2H-tetrazol-5-yl)pyridine-2-sulfonamide] | – | 3.125 µM | 0.3906 µM | 7.91 nM | 415 nM | 13.1 nM | 18.75 µM | – | – | – | – | – | –
6 | NS(=O)(=O)c1cccc(-c2ccc3c(c2)C(=O)NC3)c1-c1nn[nH]n1 [Example 53, 3-(3-oxo-2,3-dihydro-1H-isoindol-5-yl)-2-(2H-tetrazol-5-yl)benzenesulfonamide] | – | 37.5 µM | 0.5859 µM | 4.41 nM | 73.3 nM | 37 nM | 6.25 µM | – | – | – | – | – | –
7 | Cn1nnc2ccc(-c3cccc(S(N)(=O)=O)c3-c3nn[nH]n3)cc21 [Example 67, 3-(1-methyl-1H-benzotriazol-6-yl)-2-(2H-tetrazol-5-yl)benzenesulfonamide] | – | 62.5 µM | 2.344 µM | 2.16 nM | 911 nM | 57 nM | 75 µM | – | – | – | – | – | –
8 | NS(=O)(=O)c1cccc(-c2ccco2)c1-c1nn[nH]n1 [Example 41, 3-furan-2-yl-2-(2H-tetrazol-5-yl)benzenesulfonamide] | – | 200 µM | 0.3906 µM | 30.4 nM | 247 nM | 1150 nM | 9.375 µM | – | – | – | – | – | –
9 | NS(=O)(=O)c1cccc(-c2ccc(C(O)C(F)F)cc2)c1-c1nnn[nH]1 (centres unmarked) [Example 24, 4′-(2,2-difluoro-1-hydroxyethyl)-2-(1H-tetrazol-5-yl)biphenyl-3-sulfonamide] | – | 150 µM | 1.563 µM | 3.65 nM | 17.8 nM | 124 nM | 3.125 µM | – | – | – | – | – | –
10 | NS(=O)(=O)c1cccc(C(=O)O)c1-c1nn[nH]n1 [Example 297, 3-Sulfamoyl-2-(2H-tetrazol-5-yl)benzoic acid] | – | – | – | – | – | – | – | 20000 nM | >200 µM | >200 µM | 12.5 µM | 2480 nM | 20000 nM
11 | Cc1ccc(-c2cc(-c3ccc(C(N)=O)cc3)cc(S(N)(=O)=O)c2-c2nn[nH]n2)cc1 [Example 296, 4″-methyl-5′-sulfamoyl-4′-(2H-tetrazol-5-yl)-[1,1′:3′,1″-terphenyl]-4-carboxamide] | – | – | – | – | – | – | – | 127 nM | 3.125 µM | >200 µM | 1.953 µM | 0.637 nM | 54.8 nM
